Literature values in PMC7150867, “Molecular Imaging of Galectin-1 Expression as a Biomarker of Papillary Thyroid Cancer by Using Peptide-Functionalized Imaging Probes” (Biology, 2020).

Text: To validate the effectiveness of gal-1-targeted peptides, another type of probe and therefore imaging of thyroid cancer was explored. Owing to its high sensitivity, in the order of nanomolar, resolution in the range of 50–130 µm, and nonionizing radiation, FLI appears as a promising imaging technique in the field of biomedical research and clinical diagnosis of a wide range of pathologies. In oncology, FLI enables early diagnosis and the depiction of the extent of cancer invasion, improving the accuracy of tumor resection.

## YSWHIDIVAPRN [Peptide P7, gal-1-targeted 12-mer linear peptide identified by phage display]
  LogP: 1.02
pH 7.4
  LogD7.4: −7.63
